Where “and” joins values, the source holds several entries; their conditions need not be identical. Identical values can stand only once. Like-named read-outs stand apart in the source and are kept apart here.
What was measured:
AMPA receptors = conditions: rat forebrain membranes; earlier radioligand binding studies; cited from earlier work
AMPA receptor [1] = conditions: cited from earlier work
AMPA receptor [2] = assay: Whole-cell voltage-clamp recording of AMPA-evoked currents in cultured hippocampal neurons; assay type: cell-based, rat
Experimental: (§1) Primary hippocampal neuronal cultures were prepared as previously described. In brief, timed pregnant rats Sprague-Dawley rats (Charles River Laboratories International, Wilmington, MA, USA) were anesthetized with isoflurane. E18 embryos were obtained and the hippocampi were dissected and treated in Hank’s balanced salt solution (HBSS; Invitrogen, Carlsbad, CA, USA) with trypsin (0.03%, Sigma-Aldrich, St. Louis, MO) for 20 min at 37°C. After inactivation of trypsin with neuronal medium (Neurobasal medium; Invitrogen, Life Technologies, Grand Island, NY, USA) supplemented with NS21, 0.5 mM glutamine, 10 mM HEPES) plus 5% horse serum (HS; Invitrogen), the tissue was washed twice with HBSS, and triturated with a fire-polished Pasteur pipette. After non-dissociated pieces of tissue settled, cells in the supernatant were collected by centrifugation (1100 rpm at 200×g for 3.5 min), re-suspended in neuronal medium plus 5% horse serum, counted, and plated on coverslips (Warner Instruments, Hamden, CT, USA) coated with 0.1% (w/v) poly-L-lysine (Peptides International, Louisville, KY, USA). The cell density was 3×10^4 cm^−2 in plating medium. After 4 h, the medium was replaced with serum-free neuronal medium. Cells were grown in a humidified environment of 95% air/5% CO2 at 37°C. One third of medium was changed after 5 days in vitro (DIV) and weekly thereafter.
(§2) Whole-cell voltage clamp experiments were performed 7–25 days after plating. […]. The pipette solution contained 145 CsCl, 0.1 mM CaCl2, 2 mM MgCl2, 1 mM EGTA, and 5 mM HEPES. For NMDA-mediated currents, recordings were made in a bath solution containing 135 mM NaCl, 5 mM KCl, 0.2 mM CaCl2, 10 mM HEPES, 1 µM TTX, 10 µM bicuculline, 1 µM strychnine, 10 µM NBQX, 3 µM glycine. The pipette solution contained 145 CsCl, 0.1 mM CaCl2, 1 mM EGTA, and 5 mM HEPES.
(§3) Recordings were made with an Axopatch 200B patch-clamp amplifier (Axon Instruments, Foster City, CA, USA). Whole-cell currents were filtered at 2 kHz and digitized at 10 kHz. All neurons were voltage-clamped at −60 mV. The following drugs dissolved in bath solution were applied using a fast perfusion system (VC^3-8XP, ALA Scientific Instrument, NY, USA): kainate (3, 10, 100 µM), AMPA (10, 30, 100 µM), NMDA (10, 100 µM), and perampanel (0.01–30 µM). All were from Sigma-Aldrich except perampanel, which was from Eisai Inc. Solution reservoirs contained the drugs separately or the combination of an agonist (kainate, AMPA or NMDA) plus perampanel. Each solution reservoir was connected to a pinch valve of the 8-channel VC^3-8XP perfusion system, which fed solution to an 8-to-1 mini-manifold (MP-8, Warner Instruments, Hamden, CT) that has a dead-volume of 3.5 µl when switching between solutions. Only one perfusion line was open at a time. The opening speed was 15–20 ms. The command for switching among perfusion lines was generated by the pClamp software and delivered to the control box of the perfusion system via a TTL connection.

AMPA receptor [3] = assay: Whole-cell voltage-clamp recording of kainate-evoked (AMPA receptor) currents in cultured hippocampal neurons; assay type: cell-based, rat; conditions: for percent inhibition of kainate-evoked current: sample current
Experimental: as §1, §2, §3

NMDA receptor [4] = assay: Whole-cell voltage-clamp recording of NMDA-evoked currents in cultured hippocampal neurons; assay type: cell-based, rat
Experimental: as §1, §2
Recordings were made with an Axopatch 200B patch-clamp amplifier (Axon Instruments, Foster City, CA, USA). Whole-cell currents were filtered at 2 kHz and digitized at 10 kHz. All neurons were voltage-clamped at −60 mV. […]

AMPA receptor [5] = molecular target: AMPA receptor; parameters: method as in PMID 21635236; conditions: cultured rat cortical neurons; read-out: IC50, inhibition of AMPA-induced Ca2+ influx; cited from earlier work
AMPA receptor [6] = conditions: CA1 area, rat hippocampal slices; read-out: IC50, inhibition of AMPA receptor component of the field response; cited from earlier work
NMDA receptor [7] = conditions: CA1 area, rat hippocampal slices; cited from earlier work
kainate receptor = conditions: CA1 area, rat hippocampal slices; cited from earlier work
NMDA receptor [8] = conditions: 30 µM; studies to date; cited from earlier work
[9] = 1 µM perampanel, 10, 30 and 100 µM AMPA
[10] = 3 µM perampanel and 100 µM AMPA applied simultaneously
[11] = 30 µM perampanel preapplied 5 s then coapplied, 10 and 100 µM NMDA

SMILES: CCN(CC)Cc1cccc(/C=C/c2nc3ccc(F)cc3c(=O)n2-c2ccccc2Cl)n1 [CP-465,022]
- displacement of [3H]perampanel binding (AMPA receptors): displaced

SMILES: CC1=NN=C(c2ccc(N)cc2)c2cc3c(cc2C1)OCO3 [GYKI 52466, 1-(4-amino-phenyl)-4-methyl-7,8-methyl-endioxyl-5H-2,3-benzodiaze pine]
- displacement of [3H]perampanel binding (AMPA receptors): displaced
- inhibition of steady AMPA receptor current (AMPA receptor [1]; 30 µM): ~50%
- time in which block occurs (AMPA receptor [1]; 30 µM): several hundred milliseconds
- association rate (AMPA receptor [1]): 160000 M⁻¹ s⁻¹
- dissociation rate (AMPA receptor [1]): 3.2 s⁻¹

SMILES: N#Cc1ccccc1-c1cc(-c2ccccn2)cn(-c2ccccc2)c1=O [Perampanel, 2-(2-oxo-1-phenyl-5-pyridin-2-yl-1,2-dihydropyridin-3-yl)benzonitrile]
- effect on decay time constant of AMPA-evoked currents (AMPA receptor [2]; [9]): did not alter
- effect on peak to late ratio of AMPA-evoked currents (AMPA receptor [2]; [9]): not statistically different from control
- effect on rise time constant of AMPA-evoked currents (AMPA receptor [2]; [9]): did not alter
- reduction of peak AMPA response (AMPA receptor [2]; [10]): 17%
- time to full block (AMPA receptor [2]; [10]): ≤ 5 s
- reduction in the peak and late AMPA responses (AMPA receptor [2]; 3 µM perampanel started 5 s before 100 µM AMPA): ~60%
- time constant (τ) of inhibition of AMPA receptor currents (AMPA receptor [2]; 3 µM perampanel, currents evoked by AMPA and kainate): ~1 s
- time over which block develops without preexposure (AMPA receptor [2]; 3 µM perampanel, kainate- and AMPA-evoked currents (Fig. 3)): ~3 s
- IC50 (AMPA receptor [2]; 10 µM AMPA, holding −60 mV, perampanel preapplied 5 s then coapplied, read-out: AMPA Response IC50, Peak Current): 400 nM
- IC50 (AMPA receptor [2]; 10 µM AMPA, late current at end of 5 s AMPA perfusion, read-out: AMPA Response IC50, Late Current): 400 nM
- IC50 (AMPA receptor [2]; 30 µM AMPA, holding −60 mV, perampanel preapplied 5 s then coapplied, read-out: AMPA Response IC50, Peak Current): 800 nM
- IC50 (AMPA receptor [2]; 30 µM AMPA, late current at end of 5 s AMPA perfusion, read-out: AMPA Response IC50, Late Current): 900 nM
- Kd (AMPA receptor [2]; 100 µM AMPA-evoked currents, read-out: kinetically determined binding affinity (KD = k–1/k1)): 3900 nM
- mean off rate determined from the τoff values (AMPA receptor [2]; 100 µM AMPA, 1, 3 and 10 µM perampanel): 0.68 s⁻¹
- unbinding rate constant k–1 (rate of unblock, dissociation rate) (AMPA receptor [2]; 100 µM AMPA, 1, 3 and 10 µM perampanel, intercept of kapp vs concentration): 0.58 s⁻¹
- binding rate constant k1 (rate of block, association rate) (AMPA receptor [2]; 100 µM AMPA, 1, 3 and 10 µM perampanel, slope of kapp vs concentration): 1.5×10^5 M^−1 s^−1 and 1.51±0.10×10^5 M^−1 s^−1
- IC50 (AMPA receptor [2]; 100 µM AMPA, holding −60 mV, perampanel preapplied 5 s then coapplied, read-out: AMPA Response IC50, Peak Current): 900 nM
- IC50 (AMPA receptor [2]; 100 µM AMPA, late current at end of 5 s AMPA perfusion, read-out: AMPA Response IC50, Late Current): 1200 nM
- percent inhibition of kainate-evoked current (AMPA receptor [3]; 0.1 µM perampanel, 100 µM kainate): 20%
- percent inhibition of kainate-evoked current (AMPA receptor [3]; 0.3 µM perampanel, 100 µM kainate): 41%
- percent inhibition of kainate-evoked current (AMPA receptor [3]; 1 µM perampanel, 100 µM kainate): 55%
- IC50 (AMPA receptor [3]; 3 µM kainate, holding −60 mV, perampanel preapplied 5 s then coapplied, read-out: Kainate Response IC50): 580 nM
- time constant (τ) of development of block (AMPA receptor [3]; 3 µM perampanel started 5 s after onset of 100 µM kainate): 1.2 ± 0.1 s
- reduction of the kainate-induced current (AMPA receptor [3]; 3 µM perampanel started 5 s before kainate (100 µM), one neuron): ~73%
- time constant (τ) of recovery from block (AMPA receptor [3]; 3 µM perampanel, 100 µM kainate, after termination of perampanel): 3.3 ± 1.5 s
- percent inhibition of kainate-evoked current (AMPA receptor [3]; 3 µM perampanel, 100 µM kainate): 80%
- IC50 (AMPA receptor [3]; 10 µM kainate, holding −60 mV, perampanel preapplied 5 s then coapplied, read-out: Kainate Response IC50): 510 nM
- IC50 (AMPA receptor [3]; 100 µM kainate, holding −60 mV, perampanel preapplied 5 s then coapplied, read-out: Kainate Response IC50): 580 nM
- IC50 (AMPA receptor [3]; overall value, similar at all kainate concentrations (3–100 µM), read-out: IC50, block of non-desensitizing kainate-evoked currents): 560 nM
- effect on mean amplitude of late NMDA-evoked current (NMDA receptor [4]; [11]): failed to affect
- effect on mean amplitude of peak NMDA-evoked current (NMDA receptor [4]; [11]): failed to affect
- effect on NMDA receptor currents (NMDA receptor [4]; summary statement): did not affect
- IC50 (AMPA receptor [5]): 93 nM
- IC50 (AMPA receptor [6]): 230 nM
- effect on NMDA receptor component of the field response (NMDA receptor [7]): without affecting
- effect on kainate receptor component of the field response (kainate receptor): without affecting
- inhibition of NMDA responses (NMDA receptor [8]): only minimally inhibits

From article PMC4168215, “Perampanel Inhibition of AMPA Receptor Currents in Cultured Hippocampal Neurons” (PLoS ONE, 2014)
